This note sets out measurements from patent publication US20220153783A1, “MITOCHONDRIA-TARGETING COMPOUND AND COMPOSITION COMPRISING SAME FOR TREATING OR PREVENTING AGING-RELATED DISEASES” (FUSION BIOTECHNOLOGY CO., LTD., priority 2019, published 2022).

SH = thiol (–SH) group at the N-terminus

A short description of series [1]: Macromolecular formation of SP-101 by ROS (TEM/SEM). As to conditions: 1 mM and 10 mM in water, stirred 24 hours. Format: physicochemical. On the procedure:
Specifically, 1 mM SP-101 and 10 mM SP-101 were each dissolved in water and stirred for 24 hours. A drop of an aqueous solution of SP-101 was placed on a formvar/carbon-coated copper grid and evaporated under atmospheric conditions. The sample was stained with a 2 wt % uranyl acetate solution, evaporated for 1 minute, and then the excess solution was removed therefrom by using a filter paper.

The subject of series [2] is choroidal neovascularization. The experiment in a line: Laser-induced CNV model, fluorescein angiography. Format: in vivo, mice. Conditions: two weeks after laser, compared to Eylea control group. From the text:
Specifically, the mice were anesthetized by intraperitoneal injection of ketamine hydrochloride and xylazine hydrochloride. By using a diode laser with a wavelength of 810 nm, eight photocoagulation spots, each having the size of 75 μm, the intensity of 250 mW, and the time of 50 ms, were made in concentric circles among the main retinal vessels around the optic nerve. The rupture of the Bruck's membrane was confirmed by identifying that cavitation bubbles had been formed in the choroid. Immediately after laser irradiation, the experimental groups treated with 10 μM, 50 μM, and 100 μM of SP-101, and phosphate buffered saline and Eylea, which were used as control groups, were injected into the vitreous cavity. Two weeks after laser irradiation, fluorescein angiography was performed thereon using a confocal scanning laser fundus camera. After fluorescein-dextran was rapidly injected intravenously, images thereof were taken at the beginning (2 min) and late (10 min).

Series [3] deals with senescent cells. The experiment in a line: Cytotoxicity of SP-101, MTT cell viability. In kind it is cell-based. As to conditions: 5 μM to 30 μM SP-101, 24 hours. The method, then:
(§1) Specifically, the cell viability of IMR90 and senescent cells against SP-101 was evaluated by identifying the reduction of 3-(4,5-dimethylthiazol-2-yl)-2,5-diphenyltetrazolium bromide (MTT) to insoluble formazan. Cells were seeded at a density of 5×10^3 cells per well in a 96-well plate and cultured overnight, followed by treatment with different concentrations of SP-101 in DMEM medium containing 10% FBS and cultured for 24 hours. Then, the cells were cultured with MTT, and then the crystallized formazan was quantified by measuring the absorbance thereof at 595 nm by using an ELISA plate reader. Results were expressed as percent viability=[(A550 (treated cells)−background value)/(A550 (untreated cells)−background value)]×100.

Series [4] deals with senescent cells. The experiment in a line: SA-b-galactosidase staining of senescent cells. In kind it is cell-based. As to conditions: 30 μM SP-101 versus untreated control, optical microscope. The method, then:
Specifically, SA-b-galactosidase staining was used. Cells that were not treated with anything were used as a control, and those treated with 30 μM of SP-101 were used as an experimental group. SA-gal staining was performed using a kit (Biovision, K320-250) according to the manufacturer's instructions. Senescent cells were identified as blue-stained cells under an optical microscope.

Series [5] is described as follows: Self-assembly of SH-KLAKLAKRGD (TEM, size). Format: physicochemical. Conditions: dissolved in water (1 mM and 10 mM), stirred 24 hours. On the procedure:
SH-KLAKLAKRGD (1 mM and 10 mM) was dissolved in water and stirred for 24 hours. A drop of SH-KLAKLAKRGD aqueous solution was placed on a formvar/carbon coated copper grid and allowed to evaporate at ambient conditions. The sample was stained with 2 wt % uranyl acetate solution and evaporated for 1 minute, and the excess solution was removed with filter paper. The specimen was observed using a JEM-1400 TEM operating at 120 kV.

The subject of series [6] is senescent cells. As to the kind of experiment: Cytotoxicity of SH-KLAKLAKRGD, MTT cell viability. In kind it is cell-based. Conditions: different concentrations, 24 hours. On the procedure: as §1, with “SH-KLAKLAKRGD” for “SP-101”, “MTT” for “3-(4,5-dimethylthiazol-2-yl)-2,5-diphenyltetrazolium bromide (MTT)”

Consider “(3-((3-(3,5-dimercaptobenzamido)propyl)dimethylammonium)propyl)triphenylphosphonium [SP-101]”, for which the “macromolecule formation by oxidation” value in series [1] is given as “oxidized to form a macromolecule”. For the same substance, the “volume of choroidal neovascularization” value in series [2] (10 μM SP-101 injected into the vitreous cavity) and in series [2] (100 μM SP-101 injected into the vitreous cavity) was “decreased by about twice compared to the Eylea control group” in each case. For the same substance, in the series with senescent cells [3], the “killing of senescent cells versus normal cells IMR90” value is given as “more senescent cells were killed than normal cells”. Besides, the “reduction of senescent cells (blue-stained cells)” value in the series with senescent cells [4] is “senescent cells were reduced”.

As for “SH-KLAKLAKRGD: mitochondria-targeting compound prepared by solid phase peptide synthesis; NH2-KLAKLAKRGD reacted with disulfide 4, structure in FIG. 10 ({SH}-KLAKLAKRGD-NH2; also: N-terminal thiol group from reaction with disulfide 4)”, in series [5], the “size of the polymerized SH-KLAKLAKRGD” value is 350±100 nm. The “macromolecule formation (TEM image)” value in series [5] (TEM) was “showed a macromolecule in which peptides were polymerized”. The “cell viability in senescent cells versus IMR90 normal cell” value in the series on senescent cells [6] is on record as “cell viability in senescent cells was lower than that in IMR90”.
